System in the first data set: not given
Assay: not given
As to conditions: rabbit, in vivo.
As for `Cc1c(NC2=NCCN2)ccc2c1NCCO2` [Example 16], the “IOP of the untreated eye (systemic effect)” value is on record as “without lowering IOP in the untreated eye”.

Staying with this data set, now noted: single drop of 0.001%, topical, one eye, rabbit.
In the case of `Cc1c(NC2=NCCN2)ccc2c1NCCO2` [Example 16], the “lowering of intraocular pressure (IOP), treated eye” value is “greater effect in lowering IOP than clonidine”.

For a further data set, the target named is T1, human α2A (Homo sapiens, UniProt P08913).
T1 construct: expressed in transfected cells; host or cells: CHO cells (CHO-C10)
T1 sequence (P08913 1-465): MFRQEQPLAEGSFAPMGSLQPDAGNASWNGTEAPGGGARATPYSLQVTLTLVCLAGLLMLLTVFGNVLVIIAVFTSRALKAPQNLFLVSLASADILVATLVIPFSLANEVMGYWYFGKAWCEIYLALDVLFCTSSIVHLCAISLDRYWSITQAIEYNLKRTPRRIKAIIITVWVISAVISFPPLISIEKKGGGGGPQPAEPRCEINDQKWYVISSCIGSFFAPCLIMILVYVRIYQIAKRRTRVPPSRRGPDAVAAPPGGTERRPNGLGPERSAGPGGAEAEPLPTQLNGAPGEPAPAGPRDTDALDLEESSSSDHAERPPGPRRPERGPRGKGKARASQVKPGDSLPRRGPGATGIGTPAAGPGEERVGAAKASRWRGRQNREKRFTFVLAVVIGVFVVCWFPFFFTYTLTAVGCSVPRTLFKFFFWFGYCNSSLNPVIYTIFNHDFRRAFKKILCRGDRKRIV
As to the kind of experiment: Receptor binding, [3H]rauwolscine, CHO-C10 cells expressing human α2A. The settings on record: CHO-C10, 22° C., 30 min. Here is the method:
Cell preparation: Chinese hamster ovary (CHO) cells expressing the human α2A and human α2C (CHO-C10 and CHO-C4 respectively) receptors and CHO cells (CHO-RNG) expressing the rat α2B, adrenoceptor were grown to near confluence in Dulbecco's modified Eagle's medium supplemented with 10% fetal bovine serum using standard cell culture methods. Cells were harvested by scraping and placed into cold buffer of the following composition: 50 mM Tris-HCl, 5 mM EDTA, pH 7.4). […] The pellet fraction was washed (resuspended in Tris-HCl, pH 8 buffer and centrifuged for 15-20 minutes at 49,000× g) 2 times and stored at -100° until binding assay.
Binding Studies: The radioligands [^3 H]rauwolscine (specific activity 80 Ci/mmol) and [^3 H]prazosin (specific activity 76 Ci/mmol) were obtained from New England Nuclear, Boston, Mass. Frozen membrane pellet was resuspended in 25 mM glycine/glycine, pH 7.5 and incubated with radioligand under the following conditions: CHO-C10, CHO-RNG, CHO-C4-[^3 H]rauwolscine, 22° C., 30 minutes; RKC-[^3 H]rauwolscine, 0° C., 120 minutes; and, HCC-[^3 H]prazosin, 22° C., 30 minutes in a final volume of 500 ul. At the end of the incubation period, the samples were filtered through glass filters (Whatman GF/B) in a 96 well cell harvester and rapidly washed four times with 4 mL of iced-cold 50 mM Tris-HCl buffer. The filters were then oven dried and transferred to scintillation vials containing 10 mL of Beckman's Ready Protein® scintillation cocktail for counting. […] Protein concentrations were determined with a protein assay kit from Bio Rad. Binding isotherms, equilibrium dissociation and affinity constants were analyzed and determined by the non-linear least squares curve fitting programs EBDA (BioSoft) or AccuFit Competition/Saturation by Beckman.
Cell Preparation: Chinese hamster ovary (CHO) cells expressing the human α2A (CHO-C10) and the rate α2B (CHO-RNG) […] were grown to near confluence in Dulbecco's modified Eagle's medium supplemented with 10% fetal bovine serum using standard cell culture methods. Cells were harvested by scraping and placed into cold buffer of the following composition: 50 mM Tris-HCl, 5 mM EDTA, pH 7.4). […] The pellet fraction was washed (resuspended in Tris-HCl, pH 8 buffer and centrifuged for 15-20 minutes at 49,000× g) 2 times and stored at […] until binding assay.
The radioligands [^3 H] rauwolscine (specific activity 80 Ci/mmol) and [^3 H] prazosin (specific activity 76 Ci/mmol) were obtained from New England Nuclear, Boston, Mass. Frozen membrane pellet was resuspended in 25 mM glycine/glycine, pH 7.4 and incubated with radioligand under the following conditions: CHO-C10, CHO-RNG, CHO-C4-[^3 H]rauwolscine, 22° C., 30 min.; and, HCC-[^3 H]prazowsin, 22° C., 30 minutes in a final volume of 500 ul. At the end of the incubation period, the samples were filtered through glass fiber filters (Whatman GF/B) in a 96 well cell harvester and rapidly washed four times which 4 mL of iced-cold 50 mM Tris-CHI buffer. The filters were then oven dried and transferred to scintillation vials containing 5 mL of Beckman's Ready Protein® scintillation cocktail for counting. […] Protein concentrations were determined with a protein assay kit from Bio lad. Binding isotherms, equilibrium dissociation and affinity constants were analyzed and determined by the non-linear least squares curve fitting programs AccuFit Competition/Saturation by Beckman.
Representative compounds of the present invention were tested according to the procedures given above. […] The receptor binding studies and K1 are measures of the affinity of a compound for a particular receptor.
Regarding `Cc1ccccc1NC1=NCCN1` [Example 1], the Ki (as a rule, the dissociation constant of the complex between target and ligand, obtained from inhibition or displacement) came to 8.9 nM.

The compound `Nc1cc(Cl)c(NC2=NCCN2)c(Cl)c1` [Example 3] displayed an inhibitory constant (Ki) of 2.9 nM. Same read-out and setting: to `c1cc2c(cc1NC1=NCCN1)NCCN2` [Example 7] belongs 35 nM; to `Cc1c(NC2=NCCN2)ccc2c1NCCN2` [Example 8], 9.6 nM. Still for that read-out and setting: to `Brc1c(NC2=NCCN2)ccc2c1NCCN2` [Example 9] belongs 6.1 nM. Turning to `CC1CNc2c(ccc(NC3=NCCN3)c2Br)N1` (stereo not shown) [Example 10], the inhibition constant Ki turned out to be 24 nM. Same read-out and setting: to `COc1ccc(NC2=NCCN2)c(C)c1OC` [Example 12] belongs 5.2 nM; to `Cc1c(NC2=NCCN2)ccc2c1OCCO2` [Example 13], 0.25 nM; to `O=C1COc2ccc(NC3=NCCN3)cc2N1` [Example 14], 52 nM. The same measure, in the same setting: to `Cc1c(NC2=NCCN2)ccc2c1NC(=O)CO2` [Example 15] belongs 17 nM. Still for that read-out and setting: to `Cc1c(NC2=NCCN2)ccc2c1NCCO2` [Example 16] belongs 1.2 nM; to `Cc1cccc(Nc2ncc[nH]2)c1C` [Example 18], 52 nM. `Cc1c(O)cccc1Nc1ncc[nH]1` [Example 20] yielded a Ki of 30 nM. Still for that read-out and setting: to `COc1c(C(C)(C)C)cc(C)c(Nc2ncc[nH]2)c1C` [Example 22] belongs 4.9 nM.

The record behind these values is patent publication US6087361A, “Aryl-imidazolines and aryl-imidazoles useful as α-2 adrenergic agonists without cardiovascular side effects” (Allergan Sales, Inc., priority 1997, dated 2000).
